Assay results: PMC11286609, “In vitro and in vivo analyses of eFAP: a novel FAP-targeting small molecule for radionuclide theranostics and other oncological interventions” (EJNMMI Radiopharmacy and Chemistry, 2024)

Columns and labels:
HT1080-WT cells = experiment: Confocal microscopy of fluorescent tracer uptake, HT1080-WT; assay type: cell-based, human; settings: HT1080-WT (FAP-negative control), 1 nM
Description: (§1) Cell experiments were performed with the human sarcoma HT1080 cell line, stably transduced with human FAP (HT1080-huFAP) which were kindly provided by Prof. Dr. Uwe Haberkorn from the University of Heidelberg. The wild type HT1080 (ATTC), hereafter HT080-WT, was used as a negative control. Additionally, the pancreatic stellate cells PS-1, obtained from Queen Mary University, were used as an endogenously FAP expressing cell line. HT1080-huFAP and HT1080-WT cells were cultured in DMEM Glutamax© (Gibco; Breda, The Netherlands) and the PS-1 cells were cultured in RPMI (Gibco). Both media were supplemented with 10% FBS (Gibco), 100 UI/mL penicillin, and 100 µg/mL streptomycin (Merck Life Science NV; Amsterdam, The Netherlands). All cell lines were regularly passaged at 80% confluence and cultured at 37 °C, 5% CO2.
(§2) Fluorescent tracer uptake was analyzed on HT1080-huFAP, HT1080-WT, and PS-1 cells. One day prior to the assay 280,000 HT1080-huFAP, 300,000 HT1080-WT, and 460,000 PS-1 cells were seeded on […] coverslips in a 6-well plate. […] Cells incubated only in medium were taken along to correct for auto-fluorescence. […] Analyses were performed in Fiji (Schindelin et al. [2012]) and were subjected to a custom-made macro to correct for auto-fluorescence signal. […]

[1] = Stability in PBS at 37 °C (radio-HPLC / LC-MS); assay type: physicochemical; settings: % intact labeled ligand, 37 °C
Description: (§3) For the stability assessment of eFAP-6, [^111In]In-eFAP-6 or [^177Lu]Lu-eFAP-6 (~ 3–7 MBq, 20 µL) was mixed with 180 µL of PBS (0.01 M, pH 7.4) and incubated at 37 °C for up to 24 h. A sample of the PBS solution was directly injected on the radio-HPLC at 1, 4, and 24 h after incubation. Additionally, [^111In]In-eFAP-6 and [^177Lu]Lu-eFAP-6 (5–15 MBq, 50 µL) were incubated with 350 µL of commercially acquired mouse or human serum (Biolegend; San Diego, CA, USA) at 37 °C for up to 24 h. Following 1, 4, and 24 h of incubation, 50 µL of the solution were mixed with 50 µL of acetonitrile in an Eppendorf tube, and centrifuged at 5000× g for 20 min. The supernatant was then analyzed by radio-HPLC. Stability studies of eFAP-7 were performed by incubation of eFAP-7 (50 µL, 10^− 4 M) in 450 µL PBS or serum at 37 °C for up to 24 h. After 1, 4, and 24 h of incubation, 50 µL of the PBS incubation solution were directly analyzed by liquid chromatography-mass spectrometry (LC-MS), while 50 µL of the serum solution was mixed with 50 µL of acetonitrile in an Eppendorf tube, and centrifuged at 5000× g for 20 min, followed by LC-MS analyses.

[2] = Stability in human serum at 37 °C (radio-HPLC / LC-MS); assay type: in vitro ADME; settings: % intact labeled ligand, human serum, 37 °C
Description: as §3

[3] = LogD7.4 shake-flask method (n-octanol/PBS); assay type: physicochemical; settings: n-octanol/PBS (1:1 v/v); n-octanol/PBS pH 7.4, shake-flask
Description: The distribution coefficients (LogD7.4) were determined using a shake-flask method, in which 2 µL (~ 0.5 MBq) of [^111In]In-eFAP-6 or 10 µL of eFAP-7 (10^− 4 M) was added to an Eppendorf tube containing 1 mL of PBS (0.01 M, pH 7.4) and n-octanol (v/v, 1:1). After vigorous vortexing, the solution was centrifuged at 2500× g for 15 min for phase separation. For radiolabeled eFAP-6, samples (3 × 10 µL) of the octanol and aqueous phases were taken out and measured in a 1480 Wizard automatic γ-counter (PerkinElmer; Groningen, The Netherlands). LogD7.4 values were calculated by using the following equation: LogD7.4 = log [(counts in octanol phase)/(counts in aqueous phase)]. For eFAP-7, samples (50 µL) of the octanol and aqueous phases were taken out and measured by LC-MS. LogD7.4 values were calculated by using the following equation: LogD7.4 = log [(area in octanol phase)/(area in aqueous phase)].

[4] = Stability in mouse serum at 37 °C (radio-HPLC / LC-MS); assay type: in vitro ADME; settings: % intact labeled ligand, mouse serum, 37 °C
Description: as §3

HT1080-huFAP cells = experiment: Confocal microscopy of fluorescent tracer uptake, HT1080-huFAP; assay type: cell-based, human
Description: as §1, §2

CN1/C(=C/C=C/C=C/C2=[N+](CCCCCC(=O)NCCCOc3cccc4c(C(=O)NCC(=O)N5CC(F)(F)C[C@H]5C#N)ccnc34)c3ccc(S(=O)(=O)[O-])cc3C2(C)C)C(C)(C)c2cc(S(=O)(=O)O)ccc21 [eFAP-7, 1-(6-((3-((4-((2-((S)-2-cyano-4,4-difluoropyrrolidin-1-yl)-2-oxoethyl)carbamoyl)quinolin-8-yl)oxy)propyl)amino)-6-oxohexyl)-3,3-dimethyl-5-sulfo-2-((1E,3E)-5-((E)-1,3,3-trimethyl-5-sulfoindolin-2-ylidene)penta-1,3-dien-1-yl)-3H-indol-1-ium]
uptake in HT1080-WT cells (HT1080-WT cells): no uptake was observed | Stability (% ± SD) PBS 1 h ([1]; 1 h): 99.5 ± 0.5% | Stability (% ± SD) PBS 4 h ([1]; 4 h): 99.2 ± 0.7% | Stability (% ± SD) PBS 24 h ([1]; 24 h): 99.1 ± 0.1% | Stability (% ± SD) Human serum 1 h ([2]; 1 h): 87.6 ± 0.9% | Stability (% ± SD) Human serum 4 h ([2]; 4 h): 87.9 ± 2.3% | Stability (% ± SD) Human serum 24 h ([2]; 24 h): 85.5 ± 2.1% | logD [3]: -0.94 ± 0.26 | Stability (% ± SD) Mouse serum 1 h ([4]; 1 h): 85.0 ± 3.3% | Stability (% ± SD) Mouse serum 4 h ([4]; 4 h): 83.2 ± 4.1% | Stability (% ± SD) Mouse serum 24 h ([4]; 24 h): 76.2 ± 7.1% | sCy5 signal with an excess of UAMC-1110 (HT1080-huFAP cells; 1 nM tracer + 1 mM UAMC-1110): almost no visible signal | sCy5 signal (uptake) in cells (HT1080-huFAP cells; 1 nM, 15 and 45 min of incubation): a clear signal was visible
